Assay results as given in PMC4849045, “Hepatoprotective Limonoids from Andiroba (Carapa guianensis)” (International Journal of Molecular Sciences, 2016).
Read-outs that look alike come from different tables or passages of the source.

Columns and labels:
[1] = test system: D-GalN/LPS-induced liver injury in mice; design: method as in PMID 24697904; conditions: p.o., cited from earlier work; for Mortality: dead/total; for sALT / sAST: mean ± S.E.M.
[2] = test system: primary cultured mouse hepatocytes; conditions: cited from earlier work; for Inhibition (%) of D-GalN-induced cytotoxicity: mean ± S.E.M. (n = 4)
[3] = test system: D-GalN/LPS-induced liver injury in mice; assay: D-GalN/LPS-induced liver injury in mice; assay type: in vivo, mouse; conditions: p.o.; for Mortality: dead/total; for sALT / sAST: mean ± S.E.M.
Method: Male ddY mice (Kiwa Laboratory Animal Co., Ltd., Wakayama, Japan) were housed at a constant temperature of 23 ± 2°C and were fed a standard laboratory chow (MF, Oriental Yeast Co., Ltd., Tokyo, Japan). The animals were fasted for 24 h prior to the beginning of the experiment but were allowed free access to tap water. All experiments were performed with conscious mice unless otherwise noted. The experimental protocol was approved by the Experimental Animal Research Committee of Kindai University (KAPR-26-001, 1 April 2014).
The method described by Tiegs et al. was modified and used for this study. Curcumin [36] and silybin were used as reference compounds.

L929 cells [4] = test system: L929 cells; design: method as in PMID 24697904; conditions: cited from earlier work; for Inhibition (%) of TNF-α-induced cytotoxicity: mean ± S.E.M. (n = 4)
L929 cells [5] = assay: TNF-α-induced cytotoxicity in L929 cells (MTT assay); assay type: cell-based; conditions: Mus musculus, L929, 1 ng/mL TNF-α, 44 h, mean ± S.E.M. (n = 4), read-out: Inhibition (%) of TNF-α-induced cytotoxicity
Method: The effects of the limonoids (1–17) on the sensitivity of hepatocytes to TNF-α were assessed by measuring TNF-α-induced decreases in the viability of L929 cells, a TNF-α-sensitive cell line, by using the MTT assay. In the absence of a test sample, the cells incubated with 1 ng/mL TNF-α for 44 h were compared with those not incubated with TNF-α.
Assay for the TNF-α-induced cytotoxicity in L929 cells was performed as described previously. Silybin was used as a reference compound [36].

[6] = test system: LPS-activated NO production in mouse peritoneal macrophages; conditions: cited from earlier work; for Inhibition (%) of LPS-activated NO production: mean ± S.E.M. (n = 4)
[7] = test system: mouse peritoneal macrophages; conditions: mean ± S.E.M. (n = 4), cited from earlier work
[8] = test system: primary cultured mouse hepatocytes; assay: D-GalN-induced cytotoxicity in primary cultured mouse hepatocytes (MTT assay); conditions: Hepatocyte, read-out: Inhibition (%) of D-GalN-induced cytotoxicity
Method: Assay for the D-GalN-induced cytotoxicity in primary cultured mouse hepatocytes was performed as described previously [33, 35, 36].

## COc1cc(/C=C/C(=O)CC(=O)/C=C/c2ccc(O)c(OC)c2)ccc1O [Curcumin, curcumin]
[1]; 12.5 mg/kg
  sALT Inhibition (%): 24.0%
  sAST Inhibition (%): 21.1%
  Mortality: 0/10
  sALT: 5024 ± 1189 Karmen Unit
  sAST: 4770 ± 1218 Karmen Unit
[1]; 25 mg/kg
  sALT Inhibition (%): 50.9%
  sAST Inhibition (%): 47.8%
  Mortality: 0/10
  sALT: 3253 ± 981 Karmen Unit
  sAST: 3177 ± 979 Karmen Unit
[1]; 50 mg/kg
  sALT Inhibition (%): 71.2%
  sAST Inhibition (%): 63.8%
  Mortality: 1/10
  sALT: 1916 ± 483 Karmen Unit
  sAST: 2220 ± 563 Karmen Unit
[2]; 3 µM
  Inhibition (%) of D-GalN-induced cytotoxicity: 0.1 ± 3.8%
[2]; 10 µM
  Inhibition (%) of D-GalN-induced cytotoxicity: 1.1 ± 2.2%
[2]; 30 µM
  Inhibition (%) of D-GalN-induced cytotoxicity: −17.7 ± 1.3%
[2]; 100 µM
  Inhibition (%) of D-GalN-induced cytotoxicity: −44.3 ± 0.3%
[2]; concentrations of up to 100 μM
  Reduction of D-GalN-induced cytotoxicity (in words): did not reduce D-GalN-induced cytotoxicity

## COc1cc(C2Oc3cc([C@H]4Oc5cc(O)cc(O)c5C(=O)[C@@H]4O)ccc3OC2CO)ccc1O (some centres unmarked) [Silybin, silybin]
[3]; 500 mg/kg
  sALT Inhibition (%): 71.9%
  sAST Inhibition (%): 71.1%
  Mortality: 0/8
  sALT: 1990 ± 439 Karmen Unit
  sAST: 1361 ± 191 Karmen Unit
[2]; 3 µM
  Inhibition (%) of D-GalN-induced cytotoxicity: 4.8 ± 1.1%
[2]; 10 µM
  Inhibition (%) of D-GalN-induced cytotoxicity: 7.7 ± 0.7%
[2]; 30 µM
  Inhibition (%) of D-GalN-induced cytotoxicity: 45.2 ± 8.8 %
[2]; 100 µM
  Inhibition (%) of D-GalN-induced cytotoxicity: 77.0 ± 5.5 %
[2]; primary mouse hepatocytes, read-out: IC50, inhibition of D-GalN-induced cytotoxicity
  IC50: 38.8 µM
L929 cells [4]; 3 µM
  Inhibition (%) of TNF-α-induced cytotoxicity: 5.3 ± 2.8%
L929 cells [4]; 10 µM
  Inhibition (%) of TNF-α-induced cytotoxicity: 22.0 ± 3.8 %
L929 cells [4]; 30 µM
  Inhibition (%) of TNF-α-induced cytotoxicity: 48.0 ± 4.1 %
L929 cells [4]; 100 µM
  Inhibition (%) of TNF-α-induced cytotoxicity: 50.8 ± 3.9 %
L929 cells [4]; L929 cells, read-out: IC50, inhibition of TNF-α-induced decrease in cell viability
  IC50: 37.2 µM

## CC(=O)O[C@@H]1C[C@H]2C(C)(C)C(=O)C=C[C@]2(C)[C@H]2CC[C@@]3(C)[C@H](c4ccoc4)OC(=O)[C@H]4O[C@]43[C@@]21C [compound 1, gedunin]
[3]; 25 mg/kg
  sALT Inhibition (%): 65.7%
  sAST Inhibition (%): 56.2%
  Mortality: 0/7
  sALT: 2950 ± 710 Karmen Unit
  sAST: 2304 ± 651 Karmen Unit
[3]; 50 mg/kg
  sALT Inhibition (%): 67.2%
  sAST Inhibition (%): 63.5%
  Mortality: 0/7
  sALT: 2824 ± 754 Karmen Unit
  sAST: 1923 ± 576 Karmen Unit
L929 cells [5]; 1 µM
  inhibition at 1 µM: 4.5 ± 1.9%
L929 cells [5]; 3 µM
  inhibition at 3 µM: 21.8 ± 3.7%
L929 cells [5]; 10 µM
  inhibition at 10 µM: 38.1 ± 3.8%
L929 cells [5]; 30 µM
  inhibition at 30 µM: 36.5 ± 4.1%
[6]; 3 µM
  Inhibition (%) of LPS-activated NO production: 25.1 ± 2.5%
[6]; 10 µM
  Inhibition (%) of LPS-activated NO production: 84.5 ± 2.3%
[6]; 30 µM
  Inhibition (%) of LPS-activated NO production: 101.8 ± 0.6%
[6]; 100 µM
  Inhibition (%) of LPS-activated NO production: 100.9 ± 0.4%
[6]; mouse peritoneal macrophages, read-out: IC50, inhibition of LPS-activated NO production
  IC50: 4.6 µM
[7]; 3 µM
  cell viability (%) in MTT assay (values in parentheses): 102.2 ± 5.3%
[7]; 10 µM
  cell viability (%) in MTT assay (values in parentheses): 119.5 ± 5.3%
[7]; 30 µM
  cell viability (%) in MTT assay (values in parentheses): 94.8 ± 1.4%
[7]; 100 µM, # = cytotoxic effects were observed
  cell viability (%) in MTT assay (values in parentheses): 3.0 ± 0.4%
[8]
  inhibition at 3 µM: -8.4 ± 1.9%
  inhibition at 10 µM: -3.9 ± 0.4%
  inhibition at 30 µM: -3.2 ± 0.9%
  inhibition at 100 µM: -5.2 ± 0.2%
